In ChEMBL document CHEMBL5385867, “2-Phenoxy-3, 4'-bipyridine derivatives inhibit AURKB-dependent mitotic processes by disrupting its localization” (Eur J Med Chem, 2023):
Values belong to the compound of their own block, whether it stands above or below them. Activity calls are given as the source filed them. No cut-off for these calls is given here.

Tests used:
[1] = target: Aurora kinase B (Homo sapiens) (UniProt Q96GD4); experiment: Disruption of AURKB localization in human RPE-MYC transfected with GFP-H2B assessed as minimal effective concentration that induces mitotic arrest, polyploidy, cell death and cell number reduction by MIPS assay; format: cell-based
Sequence of Aurora kinase B (Homo sapiens) (Q96GD4 whole entry): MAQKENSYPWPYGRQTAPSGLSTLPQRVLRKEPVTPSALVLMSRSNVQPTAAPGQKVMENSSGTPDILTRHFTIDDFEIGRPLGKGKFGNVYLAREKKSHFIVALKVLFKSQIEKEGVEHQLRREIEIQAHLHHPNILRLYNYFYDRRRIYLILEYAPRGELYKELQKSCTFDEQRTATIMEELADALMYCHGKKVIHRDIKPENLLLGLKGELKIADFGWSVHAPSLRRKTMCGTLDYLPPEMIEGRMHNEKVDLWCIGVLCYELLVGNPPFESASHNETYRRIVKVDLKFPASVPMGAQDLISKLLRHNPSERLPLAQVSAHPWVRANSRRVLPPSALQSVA

[2] = target: Aurora kinase B (Homo sapiens) (UniProt Q96GD4); experiment: Inhibition of Aurora kinase B in human RPE-MYC cells transfected with BCL2 assessed as inhibition of histone H3 phosphorylation at Ser10 residue by immunofluorescence staining based analysis; format: cell-based
[3] = target: T1, Aurora kinase A (Homo sapiens) (UniProt O14965); experiment: Inhibition of Aurora kinase A in human RPE-MYC cells transfected with BCL2 assessed as inhibition of protein autophosphorylation at Thr288 residue by immunofluorescence staining based analysis; format: cell-based
T1 sequence (whole entry): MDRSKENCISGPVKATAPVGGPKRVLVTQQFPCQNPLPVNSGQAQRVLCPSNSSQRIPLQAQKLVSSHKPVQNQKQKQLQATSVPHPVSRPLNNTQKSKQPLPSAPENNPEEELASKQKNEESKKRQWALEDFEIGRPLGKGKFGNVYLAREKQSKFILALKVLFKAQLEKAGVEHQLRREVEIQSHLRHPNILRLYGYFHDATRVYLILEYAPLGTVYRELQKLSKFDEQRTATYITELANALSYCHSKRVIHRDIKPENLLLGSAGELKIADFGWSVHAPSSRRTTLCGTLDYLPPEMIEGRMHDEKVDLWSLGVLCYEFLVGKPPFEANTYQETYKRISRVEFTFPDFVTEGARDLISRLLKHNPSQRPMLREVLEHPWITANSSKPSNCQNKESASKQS

[4] = target: Aurora kinase B (Homo sapiens) (UniProt Q96GD4); experiment: Disruption of AURKB localization in human RPE-MYC cells transfected with BCL2 assessed as loss of localization of microtubules at the spindle-midzone by immunofluorescence staining based analysis; format: cell-based
[5] = Cmax in BALB/c mouse at 50 mg/kg, po compound formulated in PEG300 and administered as single dose by LC-MS/MS analysis; format: ADME, organism-based; design: dose 50 mg/kg, route po; settings: in vivo
[6] = target: Aurora kinase B (Homo sapiens) (UniProt Q96GD4); experiment: Inhibition of Aurora kinase B in human RPE-MYC cells transfected with BCL2 assessed as inhibition of histone H3 phosphorylation at Ser10 residue at MEC for polyploidy measured after 6 hrs by immunofluorescence staining based analysis; format: cell-based
[7] = target: Aurora kinase B (Homo sapiens) (UniProt Q96GD4); experiment: Disruption of AURKB localization in human RPE-MYC cells transfected with BCL2 assessed as loss of localization of MKLP1 at the spindle-midzone by immunofluorescence staining based analysis; format: cell-based
[8] = target: Aurora kinase B (Homo sapiens) (UniProt Q96GD4); experiment: Disruption of AURKB localization in human RPE-MYC cells transfected with BCL2 assessed as mislocalization of AURKB at the spindle zone in anaphase cells by immunofluorescence staining based analysis; format: cell-based
[9] = target: Aurora kinase B (Homo sapiens) (UniProt Q96GD4); experiment: Disruption of AURKB localization in human RPE-MYC cells transfected with BCL2 assessed as loss of localization of PLK1 at the spindle-midzone by immunofluorescence staining based analysis; format: cell-based
[10] = Dose normalized AUC (0 to 6 hrs) in BALB/c mouse at 50 mg/kg, po compound formulated in PEG300 and administered as single dose by LC-MS/MS analysis; format: ADME, organism-based; settings: in vivo
[11] = target: Aurora kinase B (Homo sapiens) (UniProt Q96GD4); experiment: Disruption of AURKB localization during anaphase in human NCI-H23 cells at 2.5 nM measured after 24 hrs by immunofluorescence staining based analysis; format: cell-based
[12] = target: Aurora kinase B (Homo sapiens) (UniProt Q96GD4); experiment: Disruption of AURKB localization in human RPE-MYC cells transfected with BCL2 assessed as misaligned chromosomes in metaphase-like cells at 2.5 nM measured after 24 hrs by immunofluorescence staining based analysis; format: cell-based
[13] = target: T1, Aurora kinase A (Homo sapiens); experiment: Inhibition of Aurora kinase A in human RPE-MYC cells transfected with BCL2 assessed as inhibition of protein autophosphorylation at Thr288 residue at 160 nM measured after 6 hrs by immunofluorescence staining based analysis; format: cell-based
[14] = target: Aurora kinase B (Homo sapiens) (UniProt Q96GD4); experiment: Disruption of AURKB localization in human RPE-MYC cells transfected with BCL2 assessed as lagging chromosomes in anaphase cells at 2.5 nM measured after 24 hrs by immunofluorescence staining based analysis; format: cell-based
[15] = Induction of mitotic arrest in human RPE-MYC cells transfected with BCL2 assessed as mitotic index at 2.5 nM measured after 24 hrs by DAPI staining based bright field microscopic analysis (reference value: 3.5%); format: functional
[16] = target: T1, Aurora kinase A (Homo sapiens); experiment: Inhibition of Aurora kinase A in human RPE-MYC cells transfected with BCL2 assessed as inhibition of protein autophosphorylation at Thr288 residue at 2.5 nM measured after 6 hrs by immunofluorescence staining based analysis; format: cell-based
[17] = target: Aurora kinase B (Homo sapiens) (UniProt Q96GD4); experiment: Disruption of AURKB localization in human RPE-MYC cells transfected with BCL2 assessed as accumulation of polyploid cells with multilobular nuclei at 2.5 nM measured after 48 hrs by immunofluorescence staining based analysis; format: cell-based
[18] = target: Aurora kinase B (Homo sapiens) (UniProt Q96GD4); experiment: Inhibition of Aurora kinase B in human RPE-MYC cells transfected with BCL2 assessed as inhibition of histone H3 phosphorylation at Ser10 residue at 2.5 nM measured after 6 hrs by immunofluorescence staining based analysis; format: cell-based
[19] = target: Aurora kinase B (Homo sapiens) (UniProt Q96GD4); experiment: Inhibition of Aurora kinase B in human RPE-MYC cells transfected with BCL2 assessed as inhibition of histone H3 phosphorylation at Ser10 residue at >5 nM measured after 6 hrs by immunofluorescence staining based analysis; format: cell-based
[20] = target: Aurora kinase B (Homo sapiens) (UniProt Q96GD4); experiment: Inhibition of Aurora kinase B in human NCI-H23 cells transfected with BCL2 assessed as inhibition of histone H3 phosphorylation at Ser10 residue at 2.5 nM measured after 6 hrs by immunofluorescence staining based analysis; format: cell-based
[21] = target: T1, Aurora kinase A (Homo sapiens); experiment: Inhibition of Aurora kinase A in human NCI-H23 cells transfected with BCL2 assessed as inhibition of protein autophosphorylation at Thr288 residue at 2.5 nM measured after 6 hrs by immunofluorescence staining based analysis; format: cell-based
[22] = target: Aurora kinase B (Homo sapiens) (UniProt Q96GD4); experiment: Inhibition of Aurora kinase B in human RPE-MYC cells transfected with BCL2 assessed as inhibition of histone H3 phosphorylation at Ser10 residue at 200 nM measured after 6 hrs by immunofluorescence staining based analysis; format: cell-based

Structure (SMILES): COc1cc(Oc2ncccc2-c2ccncc2)cc(C(=O)N(C)C)c1
MEC [1]: 2.08 µM

Structure (SMILES): Nc1nccc(-c2cccnc2Oc2ccccc2)n1
MEC [1]: > 20 µM

Structure (SMILES): COc1cc(OC)cc(Oc2ncccc2-c2ccncc2)c1
MEC [1]: 0.14 µM

Structure (SMILES): Nc1ccc(Oc2ncccc2-c2ccnc(N)n2)cc1
MEC [1]: 5 µM

Structure (SMILES): COc1cc(OC)cc(Oc2ncccc2-c2ccncn2)c1
MEC [1]: 0.75 µM

inhibition [2]: inactive | inhibition [3]: inactive
Structure (SMILES): COc1cc(OC)cc(Oc2ncccc2-c2ccnc(C)c2)c1
MEC [1]: 0.08 µM

Structure (SMILES): COc1cc(OC)cc(Oc2ncccc2-c2ccnc(N)c2)c1
MEC [1]: 0.28 µM

Activity [4]: Active | Cmax [5]: 14.4 µM | inhibition [6]: inactive | Activity [7]: Active | Activity [8]: Active | Activity [9]: Active | AUC/dose [10]: 0.72 µM·h/mg/kg
Structure (SMILES): CNC(=O)c1cc(Oc2ncccc2-c2ccnc(C)c2)cc(OC(F)(F)F)c1
MEC [1]: 0.12 µM

Structure (SMILES): COC(=O)c1cccc(Oc2ncccc2-c2ccnc(N)n2)c1
MEC [1]: 0.85 µM

Activity [11]: Active | Activity [12]: Active | inhibition [13]: 100% | Activity [14]: Active | inhibition [16]: inactive | Activity [17]: Active | inhibition [18]: inactive | inhibition [19]: Active | inhibition [20]: inactive | inhibition [21]: inactive
Structure (SMILES): Cc1csc(-c2nnc(Nc3ccc(Oc4ncccc4-c4ccnc(N)n4)cc3)c3ccccc23)c1 [AMG-900]
Activity [15]: 7.8%

Structure (SMILES): COc1cc(Oc2ncccc2-c2ccncc2)cc(-c2nc(C)no2)c1
MEC [1]: 0.42 µM

Activity [4]: Active | inhibition [6]: inactive | Activity [7]: Active | Activity [8]: Active | Activity [9]: Active
Structure (SMILES): CNC(=O)c1cc(OC)cc(Oc2ncccc2-c2ccnc(OC)c2)c1
MEC [1]: 0.03 µM

Structure (SMILES): COC(=O)c1cc(OC)cc(Oc2ncccc2-c2ccncc2)c1
MEC [1]: 0.02 µM

Structure (SMILES): CNC(=O)c1cc(Oc2ncccc2-c2ccncc2)cc(OC(F)(F)F)c1
MEC [1]: 0.16 µM

inhibition [22]: 100%
Structure (SMILES): CCN(CCCOc1ccc2c(Nc3cc(CC(=O)Nc4cccc(F)c4)[nH]n3)ncnc2c1)CCOP(=O)(O)O

Structure (SMILES): COc1cc(OC)cc(Oc2ncccc2-c2ccccc2)c1
MEC [1]: 2.08 µM
